Consider 50 compounds from patent publication US7807676B2, “Diketo-Piperazine and Piperidine derivatives as antiviral agents” (priority 2006, dated 2010).

Where only a bound is given, the exact number is not on record here.

This test concerns HIV-1 single-round infectious reporter virus. Nature of the test: Single-round infectious HIV-1 luciferase reporter virus infection of HeLa CD4 cells (antiviral EC50). Type of test: cell-based. The settings on record: Human immunodeficiency virus 1, HeLa, read-out: EC50 Group from Table 3. An outline of the steps: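 Compound (≤10 μM final, 10 concentrations) was added to HeLa CD4 cells together with luciferase-reporter HIV-1 pseudovirus (nef replaced by luciferase, envelope supplied in trans) at MOI ~0.01. Cells were lysed 72 h post-infection at 37 °C for luminescence; percent inhibition versus untreated infection, fitted four-parameter logistic for EC50.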
On the technique in general: In a reporter assay the amount or activity of a reporter protein is the signal.
As for `COc1cnc(-n2cnc(C)n2)c2[nH]cc(C(=O)C(=O)N3CCC(n4ccnc4-c4ccccc4)CC3)c12` [G-11b], the EC50 (commonly the concentration needed to bring the measured effect to its halfway point) is more than 500 nM.

On to `O=C(C(=O)N1CCN(C2=NCCN2c2ccccc2)CC1)c1c[nH]c2c(-n3ccnn3)ncc(F)c12` [G-12a], for which the EC50 is less than 500 nM. On to `COc1cnc(-n2cnc(C)n2)c2[nH]cc(C(=O)C(=O)N3CCN(C4=NCCN4c4ccccc4)CC3)c12` [G-12b], for which the EC50 was less than 500 nM. Consider `Cn1ncc(N2CCN(C(=O)C(=O)c3c[nH]c4c(-n5ccnn5)ncc(F)c34)CC2)c1-c1ccccc1` [G-13a], for which the EC50 is less than 500 nM. To `COc1cnc(-n2cnc(C)n2)c2[nH]cc(C(=O)C(=O)N3CCN(c4cnn(C)c4-c4ccccc4)CC3)c12` [G-13b] belongs less than 500 nM. In the case of `CN(C)c1cc(N2CCN(C(=O)C(=O)c3c[nH]c4c(-n5ccnn5)ncc(F)c34)CC2)c(-c2ccccc2)nn1` [G-14a], the EC50 is less than 500 nM. As for `COc1cnc(-n2cnc(C)n2)c2[nH]cc(C(=O)C(=O)N3CCN(c4cc(N(C)C)nnc4-c4ccccc4)CC3)c12` [G-14b], the EC50 is less than 500 nM. In the case of `O=C(C(=O)N1CCN(c2ccnnc2-c2ccccc2)CC1)c1c[nH]c2c(-n3ccnn3)ncc(F)c12` [G-15a], the EC50 is less than 500 nM. Regarding `COc1cnc(-n2cnc(C)n2)c2[nH]cc(C(=O)C(=O)N3CCN(c4ccnnc4-c4ccccc4)CC3)c12` [G-15b], the EC50 was less than 500 nM. To `O=C(C(=O)N1CCN(c2cn(CCN3CCOCC3)nc2-c2ccccc2)CC1)c1c[nH]c2c(-n3ccnn3)ncc(F)c12` [G-16] belongs less than 500 nM; to `O=C(C(=O)N1CCC(C2=NCCN2c2ccccc2)CC1)c1c[nH]c2c(-n3ccnn3)ncc(F)c12` [G-17a], more than 500 nM; to `COc1cnc(-n2cnc(C)n2)c2[nH]cc(C(=O)C(=O)N3CCC(C4=NCCN4c4ccccc4)CC3)c12` [G-17b], less than 500 nM.

Regarding `O=C(C(=O)N1CCC(c2nccn2-c2ccccc2)CC1)c1c[nH]c2c(-n3ccnn3)ncc(F)c12` [G-18a], the EC50 was less than 500 nM. For the compound `COc1cnc(-n2cnc(C)n2)c2[nH]cc(C(=O)C(=O)N3CCC(c4nccn4-c4ccccc4)CC3)c12` [G-18b], the EC50 is less than 500 nM. In the case of `O=C(C(=O)N1CCN(c2cncnc2-c2ccccc2)CC1)c1c[nH]c2c(-n3ccnn3)ncc(F)c12` [G-19a], the EC50 was less than 500 nM. To `COc1cnc(-n2cnc(C)n2)c2[nH]cc(C(=O)C(=O)N3CCN(c4cncnc4-c4ccccc4)CC3)c12` [G-19b] belongs less than 500 nM; to `CCOC(=O)Cn1cc(N2CCN(C(=O)C(=O)c3c[nH]c4c(-n5ccnn5)ncc(F)c34)CC2)c(-c2ccccc2)n1` [G-20], less than 500 nM; to `COc1cnc(-n2cnc(C)n2)c2[nH]cc(C(=O)C(=O)N3CCN(c4cn(CC#N)nc4-c4ccccc4)CC3)c12` [G-21], less than 500 nM.

For the compound `O=C(C(=O)N1CCN(c2cnnn2-c2ccccn2)CC1)c1c[nH]c2c(-n3ccnn3)ncc(F)c12` [G-22a], the EC50 was less than 500 nM. Regarding `COc1cnc(-n2cnc(C)n2)c2[nH]cc(C(=O)C(=O)N3CCN(c4cnnn4-c4ccccn4)CC3)c12` [G-22b], the EC50 is less than 500 nM. Turning to `COc1cnc(-n2cnc(C)n2)c2[nH]cc(C(=O)C(=O)N3CCN(c4nn(C)nc4-c4ccccc4)CC3)c12` [G-23], the EC50 is less than 500 nM. To `O=C(C(=O)N1CCN(c2nn[nH]c2-c2ccccn2)CC1)c1c[nH]c2c(-n3ccnn3)ncc(F)c12` [G-24a] belongs less than 500 nM. `COc1cnc(-n2cnc(C)n2)c2[nH]cc(C(=O)C(=O)N3CCN(c4nn[nH]c4-c4ccccn4)CC3)c12` [G-24b]: the EC50 was less than 500 nM.

As for `O=C(C(=O)N1CCN(c2nn[nH]c2-c2nccs2)CC1)c1c[nH]c2c(-n3ccnn3)ncc(F)c12` [G-25a], the EC50 was less than 500 nM. Regarding `COc1cnc(-n2cnc(C)n2)c2[nH]cc(C(=O)C(=O)N3CCN(c4nn[nH]c4-c4nccs4)CC3)c12` [G-25b], the EC50 was less than 500 nM. Turning to `CSc1nc(N2CCN(C(=O)C(=O)c3c[nH]c4c(-n5ccnn5)ncc(F)c34)CC2)n(-c2ccccc2)n1` [G-26a], the EC50 is less than 500 nM. For the compound `COc1cnc(-n2cnc(C)n2)c2[nH]cc(C(=O)C(=O)N3CCN(c4nc(SC)nn4-c4ccccc4)CC3)c12` [G-26b], the EC50 was less than 500 nM. For `O=C(C(=O)N1CCN(c2ncnn2-c2ccccc2)CC1)c1c[nH]c2c(-n3ccnn3)ncc(F)c12` [G-27a], the EC50 is less than 500 nM. Consider `COc1cnc(-n2cnc(C)n2)c2[nH]cc(C(=O)C(=O)N3CCN(c4ncnn4-c4ccccc4)CC3)c12` [G-27b], for which the EC50 is less than 500 nM. To `CS(=O)(=O)c1nc(N2CCN(C(=O)C(=O)c3c[nH]c4c(-n5ccnn5)ncc(F)c34)CC2)n(-c2ccccc2)n1` [G-28a] belongs less than 500 nM; to `COc1cnc(-n2cnc(C)n2)c2[nH]cc(C(=O)C(=O)N3CCN(c4nc(S(C)(=O)=O)nn4-c4ccccc4)CC3)c12` [G-28b], less than 500 nM.

Regarding `COc1nc(N2CCN(C(=O)C(=O)c3c[nH]c4c(-n5ccnn5)ncc(F)c34)CC2)n(-c2ccccc2)n1` [G-29a], the EC50 is less than 500 nM. To `COc1nc(N2CCN(C(=O)C(=O)c3c[nH]c4c(-n5cnc(C)n5)ncc(OC)c34)CC2)n(-c2ccccc2)n1` [G-29b] belongs less than 500 nM. As to `O=C(C(=O)N1CCN(c2cnnn2-c2ccccc2)CC1)c1c[nH]c2c(-n3ccnn3)ncc(F)c12` [G-30a], the EC50 is less than 500 nM. Take `COc1cnc(-n2cnc(C)n2)c2[nH]cc(C(=O)C(=O)N3CCN(c4cnnn4-c4ccccc4)CC3)c12` [G-30b]: the EC50 was less than 500 nM.

For `COc1cnc(-n2cc(C)nn2)c2[nH]cc(C(=O)C(=O)N3CCN(c4nnnn4-c4ccccn4)CC3)c12` [G-31], the EC50 is less than 500 nM.

`Cc1nc(N2CCN(C(=O)C(=O)c3c[nH]c4c(-n5ccnn5)ncc(F)c34)CC2)n(-c2ccccc2)n1` [G-32]: the EC50 is less than 500 nM. With `COc1cnc(-c2cncc(F)c2)c2[nH]cc(C(=O)C(=O)N3CCN(c4nnnn4-c4ccccn4)CC3)c12` [H-1], the EC50 was less than 500 nM. As for `COc1cnc(-c2cccnc2F)c2[nH]cc(C(=O)C(=O)N3CCN(c4nnnn4-c4ccccn4)CC3)c12` [H-2], the EC50 was less than 500 nM. Take `COc1cnc(-c2cccnc2)c2[nH]cc(C(=O)C(=O)N3CCN(c4nnnn4-c4ccccn4)CC3)c12` [H-3]: the EC50 is less than 500 nM. `COc1cnc(-c2cccnc2Cl)c2[nH]cc(C(=O)C(=O)N3CCN(c4nnnn4-c4ccccn4)CC3)c12` [H-4]: the EC50 was less than 500 nM. To `COc1cnccc1-c1ncc(OC)c2c(C(=O)C(=O)N3CCN(c4nnnn4-c4ccccn4)CC3)c[nH]c12` [H-5] belongs less than 500 nM; to `COc1ccncc1-c1ncc(OC)c2c(C(=O)C(=O)N3CCN(c4nnnn4-c4ccccn4)CC3)c[nH]c12` [H-6], less than 500 nM; to `COc1cnc(-c2cnccc2C)c2[nH]cc(C(=O)C(=O)N3CCN(c4nnnn4-c4ccccn4)CC3)c12` [H-7], less than 500 nM.

`COc1cnc(-c2ccnc(F)c2)c2[nH]cc(C(=O)C(=O)N3CCN(c4nnnn4-c4ccccn4)CC3)c12` [H-8]: the EC50 is less than 500 nM. Consider `COc1cnc(-c2ccc(N)nc2)c2[nH]cc(C(=O)C(=O)N3CCN(c4nnnn4-c4ccccn4)CC3)c12` [H-9], for which the EC50 is less than 500 nM. For `COc1ccc(-c2ncc(OC)c3c(C(=O)C(=O)N4CCN(c5nnnn5-c5ccccn5)CC4)c[nH]c23)cn1` [H-10], the concentration for a half-maximal effect (EC50) was less than 500 nM.

For the compound `COc1cnc(-c2ccc(C#N)nc2)c2[nH]cc(C(=O)C(=O)N3CCN(c4nnnn4-c4ccccn4)CC3)c12` [H-11], the concentration giving a half-maximal response (EC50) is less than 500 nM. Take `COc1cnc(-c2ccnc(C)c2)c2[nH]cc(C(=O)C(=O)N3CCN(c4nnnn4-c4ccccn4)CC3)c12` [H-12]: the EC50 was less than 500 nM.

With `COc1cnc(-c2ccc(F)nc2)c2[nH]cc(C(=O)C(=O)N3CCN(c4nnnn4-c4ccccn4)CC3)c12` [H-13], the EC50 was less than 500 nM.
